Test results taken from ChEMBL document CHEMBL1201862, “PubChem BioAssay data set” (2004).
Activity calls are given as the source filed them.

How the values were obtained:
[1] = target: T1, Insulin-degrading enzyme (Homo sapiens, UniProt P14735); assay: cellular IDE activation of Abeta substrate cleavage – fluorescence polarization, HEK cells, dose response (AID 588439); assay type: functional, cell-based
T1 sequence (P14735 whole entry): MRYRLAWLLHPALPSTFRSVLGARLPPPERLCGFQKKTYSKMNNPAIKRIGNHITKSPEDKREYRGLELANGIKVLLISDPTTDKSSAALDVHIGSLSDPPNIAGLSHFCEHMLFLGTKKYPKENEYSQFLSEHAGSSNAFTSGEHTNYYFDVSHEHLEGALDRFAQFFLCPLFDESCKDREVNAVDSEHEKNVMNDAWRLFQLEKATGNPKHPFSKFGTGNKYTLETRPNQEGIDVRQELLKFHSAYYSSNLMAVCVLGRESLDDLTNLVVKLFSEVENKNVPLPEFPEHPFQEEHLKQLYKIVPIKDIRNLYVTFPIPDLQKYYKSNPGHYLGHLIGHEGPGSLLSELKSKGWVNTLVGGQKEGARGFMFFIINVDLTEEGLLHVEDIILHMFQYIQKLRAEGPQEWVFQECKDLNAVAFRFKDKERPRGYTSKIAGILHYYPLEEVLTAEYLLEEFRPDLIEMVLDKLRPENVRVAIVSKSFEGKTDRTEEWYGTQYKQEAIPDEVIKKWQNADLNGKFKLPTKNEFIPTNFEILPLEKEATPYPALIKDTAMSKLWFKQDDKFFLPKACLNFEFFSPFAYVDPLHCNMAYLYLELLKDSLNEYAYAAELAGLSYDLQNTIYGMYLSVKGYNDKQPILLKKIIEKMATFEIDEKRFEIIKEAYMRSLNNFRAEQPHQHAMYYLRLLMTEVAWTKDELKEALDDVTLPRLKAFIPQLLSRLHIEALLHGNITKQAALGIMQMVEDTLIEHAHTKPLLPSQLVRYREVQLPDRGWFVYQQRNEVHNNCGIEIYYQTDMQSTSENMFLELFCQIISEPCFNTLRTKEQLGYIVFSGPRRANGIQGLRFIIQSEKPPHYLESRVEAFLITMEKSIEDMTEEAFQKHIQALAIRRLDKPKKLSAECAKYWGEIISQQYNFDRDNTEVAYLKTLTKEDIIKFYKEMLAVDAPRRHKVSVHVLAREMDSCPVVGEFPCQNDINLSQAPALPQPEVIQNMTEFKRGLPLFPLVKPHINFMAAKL

[2] = target: Beta-lactamase (Salmonella choleraesuis (strain SC-B67), UniProt Q5J463)
Beta-lactamase (Salmonella choleraesuis (strain SC-B67), UniProt Q5J463), sequence (Q5J463 whole entry): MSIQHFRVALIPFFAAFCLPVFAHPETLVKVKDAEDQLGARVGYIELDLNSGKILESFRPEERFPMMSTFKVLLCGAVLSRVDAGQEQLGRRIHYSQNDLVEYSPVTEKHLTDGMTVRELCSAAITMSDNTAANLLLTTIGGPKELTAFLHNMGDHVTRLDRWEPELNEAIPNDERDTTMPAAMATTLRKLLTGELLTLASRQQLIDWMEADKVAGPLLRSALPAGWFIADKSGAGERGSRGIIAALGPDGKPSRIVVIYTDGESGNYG

[3] = test system: HEK293; assay: optical interference in Abeta FP readout, dose response, artefact control for IDE activator project, biochemical, fluorescence polarization (AID 588442); assay type: functional, cell-based; conditions: Homo sapiens
[4] = target: T2, ORF 73 (Human herpesvirus 8, UniProt O40947); assay: KSHV LANA DNA-binding disruption – biochemical, fluorescence polarization, cherry-picked samples, dose response (AID 504725); set-up: species or system Human gammaherpesvirus 8;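 also: fluorescence polarization of a labeled DNA duplex reporting LANA DNA binding; potency is for inhibitors that block LANA binding to the DNA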
T2 sequence (O40947 whole entry): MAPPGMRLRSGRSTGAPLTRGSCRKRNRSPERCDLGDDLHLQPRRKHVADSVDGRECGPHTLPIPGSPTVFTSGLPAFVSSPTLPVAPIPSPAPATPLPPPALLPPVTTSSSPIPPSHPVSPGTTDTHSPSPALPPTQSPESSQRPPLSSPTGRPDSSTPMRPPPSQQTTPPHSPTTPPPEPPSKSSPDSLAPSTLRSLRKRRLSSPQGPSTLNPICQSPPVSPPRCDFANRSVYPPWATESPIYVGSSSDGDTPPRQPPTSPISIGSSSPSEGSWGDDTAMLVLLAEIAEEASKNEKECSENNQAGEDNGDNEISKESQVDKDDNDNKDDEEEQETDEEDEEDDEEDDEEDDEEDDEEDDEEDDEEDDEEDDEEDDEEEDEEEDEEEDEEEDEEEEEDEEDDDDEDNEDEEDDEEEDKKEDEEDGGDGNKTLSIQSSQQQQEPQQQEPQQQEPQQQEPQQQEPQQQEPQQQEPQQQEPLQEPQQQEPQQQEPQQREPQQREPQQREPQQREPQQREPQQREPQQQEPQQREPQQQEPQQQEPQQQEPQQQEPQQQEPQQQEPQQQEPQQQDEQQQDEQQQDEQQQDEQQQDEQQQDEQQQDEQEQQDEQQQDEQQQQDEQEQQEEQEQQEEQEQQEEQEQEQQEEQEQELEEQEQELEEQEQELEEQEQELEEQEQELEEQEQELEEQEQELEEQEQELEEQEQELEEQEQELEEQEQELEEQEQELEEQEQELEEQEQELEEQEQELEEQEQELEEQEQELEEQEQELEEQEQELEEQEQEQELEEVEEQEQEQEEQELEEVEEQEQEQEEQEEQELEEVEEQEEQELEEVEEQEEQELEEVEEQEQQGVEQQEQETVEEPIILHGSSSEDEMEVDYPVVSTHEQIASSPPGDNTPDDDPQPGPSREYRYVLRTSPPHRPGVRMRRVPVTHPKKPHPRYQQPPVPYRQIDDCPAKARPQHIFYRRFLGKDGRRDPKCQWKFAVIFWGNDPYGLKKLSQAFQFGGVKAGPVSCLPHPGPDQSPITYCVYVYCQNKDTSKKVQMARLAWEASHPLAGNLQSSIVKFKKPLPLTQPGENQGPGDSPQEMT

[5] = target: T3, Zinc finger protein mex-5 (Caenorhabditis elegans, UniProt Q9XUB2); assay: potency of MEX-5 RNA-binding blockers – biochemical, C. elegans, fluorescence polarization, dose response (AID 1960)
T3 sequence (Q9XUB2 whole entry): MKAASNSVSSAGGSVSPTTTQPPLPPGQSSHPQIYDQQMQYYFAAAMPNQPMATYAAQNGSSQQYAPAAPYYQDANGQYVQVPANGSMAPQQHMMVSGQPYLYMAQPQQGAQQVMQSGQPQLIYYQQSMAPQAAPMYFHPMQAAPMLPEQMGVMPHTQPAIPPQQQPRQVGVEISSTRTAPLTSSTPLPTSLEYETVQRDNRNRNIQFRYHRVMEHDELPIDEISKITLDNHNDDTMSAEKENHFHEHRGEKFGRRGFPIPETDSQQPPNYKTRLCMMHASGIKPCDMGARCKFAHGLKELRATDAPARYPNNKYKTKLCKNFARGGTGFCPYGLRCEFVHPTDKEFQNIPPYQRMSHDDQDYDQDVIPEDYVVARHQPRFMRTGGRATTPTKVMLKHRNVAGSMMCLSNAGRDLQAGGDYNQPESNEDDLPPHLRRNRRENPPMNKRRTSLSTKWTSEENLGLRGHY

[6] = target: Keap1/Nrf2 (Homo sapiens, UniProt Q14145); assay: disruptors of Keap1 binding to Nrf2 peptide – biochemical, fluorescence polarization, cherry-picked samples, dose response (AID 588683)
Keap1/Nrf2, sequence (Q16236 whole entry): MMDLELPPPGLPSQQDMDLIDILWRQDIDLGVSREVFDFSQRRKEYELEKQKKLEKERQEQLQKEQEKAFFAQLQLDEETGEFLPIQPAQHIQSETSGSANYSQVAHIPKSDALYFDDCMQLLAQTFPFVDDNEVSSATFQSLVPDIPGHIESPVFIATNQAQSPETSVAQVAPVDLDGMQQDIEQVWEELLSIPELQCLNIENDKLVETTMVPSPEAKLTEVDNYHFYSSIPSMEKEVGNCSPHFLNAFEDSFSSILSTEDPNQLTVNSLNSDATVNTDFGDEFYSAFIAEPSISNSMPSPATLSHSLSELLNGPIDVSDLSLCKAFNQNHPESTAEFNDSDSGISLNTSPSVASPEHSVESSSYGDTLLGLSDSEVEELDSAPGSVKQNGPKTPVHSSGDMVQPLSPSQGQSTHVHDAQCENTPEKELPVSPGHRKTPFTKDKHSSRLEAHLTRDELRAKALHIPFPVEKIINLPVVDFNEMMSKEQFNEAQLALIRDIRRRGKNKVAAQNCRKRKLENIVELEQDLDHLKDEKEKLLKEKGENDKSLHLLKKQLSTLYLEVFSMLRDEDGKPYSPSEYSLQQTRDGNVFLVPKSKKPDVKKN
Keap1/Nrf2, sequence (Q14145 whole entry): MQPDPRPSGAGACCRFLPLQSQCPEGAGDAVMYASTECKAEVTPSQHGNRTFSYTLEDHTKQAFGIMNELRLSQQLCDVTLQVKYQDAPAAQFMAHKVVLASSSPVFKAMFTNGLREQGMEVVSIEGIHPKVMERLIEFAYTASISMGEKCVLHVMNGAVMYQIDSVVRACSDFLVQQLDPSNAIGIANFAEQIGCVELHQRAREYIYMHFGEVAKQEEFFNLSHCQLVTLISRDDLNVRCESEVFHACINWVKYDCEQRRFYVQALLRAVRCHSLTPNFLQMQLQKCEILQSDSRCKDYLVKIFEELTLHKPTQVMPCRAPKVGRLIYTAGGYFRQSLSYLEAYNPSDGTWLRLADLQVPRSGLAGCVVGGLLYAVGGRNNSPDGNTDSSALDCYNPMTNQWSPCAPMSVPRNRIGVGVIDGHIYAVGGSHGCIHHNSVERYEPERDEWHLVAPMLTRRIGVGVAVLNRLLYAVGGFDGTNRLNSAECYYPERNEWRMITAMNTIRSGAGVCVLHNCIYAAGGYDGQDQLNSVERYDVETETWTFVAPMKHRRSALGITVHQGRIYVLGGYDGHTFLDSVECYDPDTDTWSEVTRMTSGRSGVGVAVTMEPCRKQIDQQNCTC

[7] = test system: HEK293; assay: membrane integrity loss in HEK cells – cell-based, fluorescence, cytotoxicity control for IDE activator project, dose response (AID 588440); assay type: functional; conditions: Homo sapiens;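 also: cytotoxicity by LDH release measuring loss of membrane integrity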
[8] = target: T4, RNA-binding protein pos-1 (Caenorhabditis elegans, UniProt G5EF15); assay: disruptors of C. elegans POS-1 RNA interaction – biochemical, fluorescence polarization, dose response (AID 1964);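 also: purified POS-1 fused to maltose binding protein made in E. coli; potency of compounds blocking POS-1 binding to fluorescent RNA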
T4 sequence (G5EF15 whole entry): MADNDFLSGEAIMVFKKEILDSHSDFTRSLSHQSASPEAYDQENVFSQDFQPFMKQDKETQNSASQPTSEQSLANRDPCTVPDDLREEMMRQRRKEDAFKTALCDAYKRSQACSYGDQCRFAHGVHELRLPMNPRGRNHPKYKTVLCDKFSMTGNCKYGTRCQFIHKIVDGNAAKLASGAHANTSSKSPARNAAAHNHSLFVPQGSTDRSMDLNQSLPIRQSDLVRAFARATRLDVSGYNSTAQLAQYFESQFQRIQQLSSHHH

[9] = target: Beta-lactamase (Pseudomonas aeruginosa, UniProt Q79MP6);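 also: biochemical dose-response test of metallo-beta-lactamase enzyme inhibition, read out by epi-absorbance; purified recombinant IMP-1 metallo-beta-lactamase with nitrocefin as substrate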
Beta-lactamase (Pseudomonas aeruginosa, UniProt Q79MP6), sequence (Q79MP6 whole entry): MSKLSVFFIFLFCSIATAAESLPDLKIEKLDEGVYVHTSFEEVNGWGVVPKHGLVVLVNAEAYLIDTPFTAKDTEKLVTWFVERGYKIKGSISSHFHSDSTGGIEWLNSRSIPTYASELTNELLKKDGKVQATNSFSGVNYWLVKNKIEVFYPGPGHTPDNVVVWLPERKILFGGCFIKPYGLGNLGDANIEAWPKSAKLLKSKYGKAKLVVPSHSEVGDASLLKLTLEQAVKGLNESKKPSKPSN

[10] = target: T1, Insulin-degrading enzyme; assay: recombinant IDE activation, cell-free – biochemical, fluorescence polarization, counter-screen for IDE activator project, dose response (AID 588681)
[11] = cells; assay type: functional
[12] = THP-1 cell cytotoxicity, dose response, cytotoxicity control, set 3 (AID 504852); assay type: functional; conditions: Mycobacterium tuberculosis
[13] = (§1) Counterscreen for antagonists of the orexin 1 receptor (OX1R; HCRTR1): Fluorescence-based cell-based high throughput dose response assay to identify antagonists of the parental CHO cell line. [Related pubchem assays (depositor defined):AID434989, AID435008, AID463079, AID485270, AID492963, AID492964, AID492965, AID493232, AID504699, AID504701]; assay type: functional
[14] = target: T5, Orexin/Hypocretin receptor type 1 (Homo sapiens, UniProt O43613); assay: (§2) Fluorescence-based cell-based high throughput dose response assay for antagonists of the orexin 1 receptor (OX1R; HCRTR1). [Related pubchem assays (depositor defined):AID434989, AID435008, AID463079, AID485270, AID492963, AID492964, AID492965, AID493232, AID504717, AID504718]; assay type: functional
T5 sequence (O43613 whole entry): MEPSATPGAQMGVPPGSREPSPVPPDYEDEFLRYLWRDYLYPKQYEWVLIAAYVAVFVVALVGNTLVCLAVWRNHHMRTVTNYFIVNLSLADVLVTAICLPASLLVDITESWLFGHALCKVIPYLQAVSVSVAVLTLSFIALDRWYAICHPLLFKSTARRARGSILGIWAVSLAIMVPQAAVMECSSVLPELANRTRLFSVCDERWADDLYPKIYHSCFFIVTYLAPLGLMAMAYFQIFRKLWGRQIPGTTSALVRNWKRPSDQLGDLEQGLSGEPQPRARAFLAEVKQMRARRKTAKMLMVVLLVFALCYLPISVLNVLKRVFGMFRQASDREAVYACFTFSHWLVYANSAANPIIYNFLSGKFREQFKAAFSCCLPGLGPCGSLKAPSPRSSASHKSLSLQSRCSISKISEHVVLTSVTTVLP

[15] = target: T6, Orexin receptor type 2 (Homo sapiens, UniProt O43614); assay: Counterscreen assay for antagonists of the orexin 1 receptor (OX1R; HCRTR1): Homogeneous Time Resolved Fluorescence (HTRF)-based cell-based dose response assay for antagonists of the orexin 2 receptor (OX2R; HCRTR2), run by assay provider.; assay type: functional
T6 sequence (O43614 whole entry): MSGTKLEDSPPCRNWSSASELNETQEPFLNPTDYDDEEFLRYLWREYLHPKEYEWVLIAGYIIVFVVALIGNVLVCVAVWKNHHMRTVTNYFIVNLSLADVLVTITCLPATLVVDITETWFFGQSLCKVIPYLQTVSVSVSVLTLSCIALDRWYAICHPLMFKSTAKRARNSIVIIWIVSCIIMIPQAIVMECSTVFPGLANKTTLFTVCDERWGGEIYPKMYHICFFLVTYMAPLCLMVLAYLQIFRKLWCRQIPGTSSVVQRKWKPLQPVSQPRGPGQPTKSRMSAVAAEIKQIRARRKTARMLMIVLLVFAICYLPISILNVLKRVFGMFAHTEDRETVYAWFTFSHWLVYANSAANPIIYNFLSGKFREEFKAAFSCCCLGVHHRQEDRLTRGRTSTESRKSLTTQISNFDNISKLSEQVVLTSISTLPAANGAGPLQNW

[16] = target: T5, Orexin/Hypocretin receptor type 1; assay: as §2, with “Homogeneous Time Resolved Fluorescence (HTRF)-based” for “Fluorescence-based”; assay type: functional
[17] = target: T6, Orexin receptor type 2; assay: Counterscreen assay for antagonists of the orexin 1 receptor (OX1R; HCRTR1): Fluorescence-based cell-based dose response assay for antagonists of the orexin 2 receptor (OX2R; HCRTR2), run by assay provider.; assay type: functional
[18] = test system: CHO-K1; assay: as §1, with “Homogeneous time resolved fluorescence (HTRF)-based” for “Fluorescence-based”, “cell-based” for “cell-based high throughput”, “CHO-K1” for “CHO”; assay type: functional; conditions: Cricetulus griseus;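 also: potency for inhibition of ATP-stimulated IP1 production as antagonists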
[19] = target: Sphingosine 1-phosphate receptor 2 (Homo sapiens, UniProt O95136); assay: Late-stage fluorescence-based dose-response cell-based counterscreen assay to identify agonists of the Sphingosine 1-Phosphate Receptor 3 (S1P3): Sphingosine 1-Phosphate Receptor 2 (S1P2) agonist assay.; assay type: functional
Sphingosine 1-phosphate receptor 2, sequence (O95136 whole entry): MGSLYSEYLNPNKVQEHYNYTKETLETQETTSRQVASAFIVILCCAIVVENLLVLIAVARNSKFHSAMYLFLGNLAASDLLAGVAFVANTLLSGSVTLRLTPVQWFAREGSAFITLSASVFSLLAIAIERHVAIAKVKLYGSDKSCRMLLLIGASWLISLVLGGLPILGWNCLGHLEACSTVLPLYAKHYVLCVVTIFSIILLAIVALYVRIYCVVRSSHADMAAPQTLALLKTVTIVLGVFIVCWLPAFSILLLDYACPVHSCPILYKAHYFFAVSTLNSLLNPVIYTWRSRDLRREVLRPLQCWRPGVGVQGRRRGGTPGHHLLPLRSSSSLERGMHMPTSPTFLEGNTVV

[20] = target: Sphingosine 1-phosphate receptor 4 (Homo sapiens, UniProt O95977); assay: Late-stage fluorescence-based dose-response cell-based counterscreen assay to identify agonists of the Sphingosine 1-Phosphate Receptor 3 (S1P3): Sphingosine 1-Phosphate Receptor 4 (S1P4) agonist assay.; assay type: functional
Sphingosine 1-phosphate receptor 4, sequence (O95977 whole entry): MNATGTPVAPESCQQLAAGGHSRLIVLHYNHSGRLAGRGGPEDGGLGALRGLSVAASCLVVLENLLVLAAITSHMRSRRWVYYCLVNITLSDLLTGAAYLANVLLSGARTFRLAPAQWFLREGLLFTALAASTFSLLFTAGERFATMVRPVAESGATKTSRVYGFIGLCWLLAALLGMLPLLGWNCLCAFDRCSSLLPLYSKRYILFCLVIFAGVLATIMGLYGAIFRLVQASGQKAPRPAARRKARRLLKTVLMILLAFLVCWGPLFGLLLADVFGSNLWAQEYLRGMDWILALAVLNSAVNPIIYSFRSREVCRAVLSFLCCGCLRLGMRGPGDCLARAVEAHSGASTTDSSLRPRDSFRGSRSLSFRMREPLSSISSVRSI

For `O=C1c2cccc3c(O)ccc(c23)C(=O)N1c1ccc(Cl)cc1`, the EC50 [1] was > 54.7 µM (inactive), the IC50 [2] was 7.95 µM (active) and the EC50 [3] was > 54.7 µM (inactive). For the same compound, the AC50 [4] was 1.93 µM (active), the EC50 [5] was 0.289 µM (inconclusive) and the AC50 [6] was 2.53 µM (active). The IC50 [7] was > 89.2 µM (inactive), the EC50 [8] was 7.11 µM (inconclusive) and the IC50 [9] was 19.8 µM (inactive). For the same compound, the EC50 [10] was > 54.7 µM (inactive).
In the case of `Cc1ccc(NC(=O)COC(=O)CCc2c[nH]c3ccccc23)cc1[N+](=O)[O-]`, the IC50 [11] is reported as 1.84 µM (active) and the CC50 [12] is reported as > 100 µM (active).
For `Cc1ccc(C)n1-c1nn(S(=O)(=O)c2cccc3cccnc23)c2cccc(F)c12`, the IC50 [13] was > 49.8 µM (inactive), the IC50 [14] was 45 µM (inactive) and the IC50 [15] was > 50 µM (inactive). For the same compound, the IC50 [16] was 1.93 µM (active), the IC50 [17] was 29.3 µM (inactive) and the IC50 [18] was > 66.2 µM (inactive).
For `CC1CCCCC1N(C(=O)c1cc(C2CC2)on1)C1CCCC1` (stereo not given), the EC50 [19] was > 50 µM (inactive) and the EC50 [20] was > 50 µM (inactive).
